Measured values published in the NIST ThermoML archive (doi:10.1021/je300345m).
± gives the expanded uncertainty stated by the source.

Assay: xn = mol fraction of the nth substance listed
Conditions: 100 kPa, Liquid, Vibrating tube method

CN(CCO)CCO [N-methyldiethanolamine] + O
mass density [kg/m3]
Conditions	298.15 K	303.15 K	308.15 K	313.15 K	318.15 K	323.15 K	328.15 K	333.15 K	338.15 K	343.15 K
x1 = 0.0609	1025.2 ± 3	1022.8 ± 3	1020.3 ± 3	1017.7 ± 3	1014.9 ± 3	1012 ± 3	1009 ± 3	1005.9 ± 3	1002.7 ± 3	999.3 ± 3
x1 = 0.0916	1035.6 ± 3	1032.8 ± 3	1029.9 ± 3	1026.9 ± 3	1023.8 ± 3	1020.6 ± 3	1017.2 ± 3	1013.8 ± 3	1010.3 ± 3	1006.7 ± 3
x1 = 0.1313	1043.3 ± 3	1040.9 ± 3	1037.6 ± 3	1034.3 ± 3	1030.8 ± 3	1027.3 ± 3	1023.7 ± 3	1020.1 ± 3	1016.3 ± 3	1012.5 ± 3
x1 = 0.1848	1049.7 ± 3	1046.1 ± 3	1042.5 ± 3	1038.8 ± 3	1034.7 ± 3	1031.1 ± 3	1027.3 ± 3	1023.6 ± 3	1019.8 ± 3	1015.9 ± 3
x1 = 0.2608	1053.6 ± 3	1049.9 ± 3	1046.2 ± 3	1042.4 ± 3	1038.5 ± 3	1034.6 ± 3	1030.6 ± 3	1026.6 ± 3	1022.5 ± 3	1018.4 ± 3
x1 = 0.3768	1052.3 ± 3	1048.6 ± 3	1044.8 ± 3	1040.9 ± 3	1037 ± 3	1033.1 ± 3	1029.1 ± 3	1025 ± 3	1020.9 ± 3	1016.8 ± 3
x1 = 0.5764	1046 ± 3	1042.3 ± 3	1038.4 ± 3	1034.6 ± 3	1030.8 ± 3	1026.9 ± 3	1022.9 ± 3	1019 ± 3	1015 ± 3	1010.9 ± 3
x1 = 1	1036 ± 3.1	1032.4 ± 3.1	1028.6 ± 3.1	1024.8 ± 3.1	1021 ± 3.1	1017.2 ± 3.1	1013.3 ± 3.1	1009.4 ± 3.1	1005.6 ± 3.1	1001.7 ± 3.1
